Experimental data as given in patent US8436011B2, “Pyridinopyridinone derivatives, preparation thereof and therapeutic use thereof” (Sanofi, priority 2008, dated 2013).

Molecular target: T1, FLT3 receptor (MV4-11 cell line bearing an FLT3ITD mutant) (Homo sapiens, UniProt P36888, INS600HVDFREYEYD)
T1 construct: MV4-11 cell line, which line is established from a leukaemia of constitutively active AML type bearing an FLT3ITD mutant; endogenous in cells; host or cells: MV4-11
T1 sequence (P36888 with tags, fused parts or gaps INS600HVDFREYEYD): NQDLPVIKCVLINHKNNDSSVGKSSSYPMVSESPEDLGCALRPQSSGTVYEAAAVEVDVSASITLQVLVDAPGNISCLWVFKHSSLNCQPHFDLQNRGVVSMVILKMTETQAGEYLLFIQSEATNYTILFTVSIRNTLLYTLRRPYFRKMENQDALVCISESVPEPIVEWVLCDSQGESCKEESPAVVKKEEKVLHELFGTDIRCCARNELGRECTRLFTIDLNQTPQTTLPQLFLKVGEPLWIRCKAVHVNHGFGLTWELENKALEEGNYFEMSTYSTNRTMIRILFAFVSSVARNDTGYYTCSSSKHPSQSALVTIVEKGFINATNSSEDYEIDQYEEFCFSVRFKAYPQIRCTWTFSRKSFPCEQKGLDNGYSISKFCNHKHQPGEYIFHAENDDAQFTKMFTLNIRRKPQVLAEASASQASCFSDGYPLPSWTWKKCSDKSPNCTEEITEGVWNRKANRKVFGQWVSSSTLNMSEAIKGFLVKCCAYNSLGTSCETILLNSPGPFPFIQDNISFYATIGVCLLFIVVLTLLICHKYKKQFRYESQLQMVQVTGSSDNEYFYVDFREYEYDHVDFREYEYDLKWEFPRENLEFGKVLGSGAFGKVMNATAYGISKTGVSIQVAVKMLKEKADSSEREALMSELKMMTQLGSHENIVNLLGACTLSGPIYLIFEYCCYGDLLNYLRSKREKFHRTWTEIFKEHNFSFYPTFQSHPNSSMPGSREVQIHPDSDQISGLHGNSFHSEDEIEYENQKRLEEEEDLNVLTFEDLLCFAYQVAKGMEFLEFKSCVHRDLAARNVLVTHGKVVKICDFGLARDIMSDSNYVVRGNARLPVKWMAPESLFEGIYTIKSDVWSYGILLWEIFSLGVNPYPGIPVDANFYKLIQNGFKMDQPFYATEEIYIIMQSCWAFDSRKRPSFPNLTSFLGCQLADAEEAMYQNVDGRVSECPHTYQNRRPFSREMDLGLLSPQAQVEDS
Assay: Inhibition of FLT3 receptor tyrosine kinase activity: proliferation of MV4-11 cells (CellTiter-Glo, 72 h)
Format: cell-based
Details: 72 hours incubation, read-out: IC50 (concentration that inhibits 50% of the proliferation of the MV4-11 cells)
Method: Measurement of Inhibition of the Tyrosine Kinase Activity of the FLT3 Receptor
The inhibitory effect of the compounds according to the invention towards the tyrosine kinase activity of the FLT3 receptor was evaluated on an MV4-11 cell line, which line is established from a leukaemia of constitutively active AML type bearing an FLT3ITD mutant. The inhibitory activity is correlated to the inhibition of cell growth, according to the protocols described by Spiekermann, K. et al., Blood, 2003, 101, (4) 1494-1504 and O'Farrell, A.-M. et al., Blood, 2003, 101, (9) 3597-3605.
MV4-11 cells are washed with PBS buffer and inoculated in 96-well plates, at a density of 1×10^5 cells/ml (100 μL per well), in RPMI 1640 containing 10% FCS, in the presence or absence of the test compounds. After incubation for 72 hours, the viable cells are quantified by measuring the cellular ATP by means of the CellTiter-Glo® kit (Promega, Cat G7571). The cells are treated according to the instructions given by the kit manufacturer, and the luminescence is measured using a Luminoskan (Ascent, Labsystem) with the following parameters: measurement: single; integration time: 1000 ms, lag time: 5 s.
The inhibitory activity with respect to the FLT3 receptor is given by the concentration that inhibits 50% of the proliferation of the MV4-11 cells.

Row | SMILES | IC50
1 | CCN1CC(F)(F)C[C@H]1CNC(=O)Cc1ccc(-c2ccc3c(=O)c(C(=O)NC)c(N)n(CC)c3n2)cc1 [compound 24, 2-amino-1-ethyl-7-{4-[2-({[(2S)-1-ethyl-4,4-difluoropyrrolidin-2-yl]methyl}-amino)-2-oxoethyl]phenyl}-N-methyl-4-oxo-1,4-dihydro-1,8-naphthyridine-3-carboxamide] | 190 nM
2 | CCn1c(N)c(C(=O)NC)c(=O)c2ccc(-c3ccc(CC(=O)NCC4COCCN4C4CC4)cc3)nc21 (centres unmarked) [compound 33, 2-amino-7-[4-(2-{[(4-cyclopropylmorpholin-3-yl)methyl]amino}-2-oxoethyl)phenyl]-1-ethyl-N-methyl-4-oxo-1,4-dihydro-1,8-naphthyridine-3-carboxamide] | 56 nM
